Columns and labels:
[1] = Toxicity / maximally tolerated dose in mice; type: in vivo; conditions: administered orally or via IP injection to untreated OVA-challenged mice for 22 days
Description: 3-CP was also administered using 3 daily intraperitoneal (IP) injections (200 μl, 0.15 M, ˜300 mg/kg) 0.5 hour prior to the challenge with OVA aerosol, or by nasal instillation (50 μl, 0.3 M, ˜150 mg/kg) twice a day 0.5 hour prior to the challenge with OVA aerosol and 6 hours later without exceeding its maximally tolerated dose, which has been previously established to be 300-500 mg/kg. Both 3-CP and TPL were non-toxic when administered orally or via IP injection to untreated OVA-challenged mice for 22 days.

IL-5 = IL-5 level in OVA asthma model; type: in vivo, BALB/c mice; conditions: for IL-5 level: lung tissue (table title)
Description: All experimental procedures were carried out in accordance with the NIH Guidelines for the Care and Use of Laboratory Animals. Specific pathogen-free (SPF) male BALB/c mice (6-7 weeks of age, 18-22 grams), routinely screened serologically for relevant respiratory pathogens, were maintained in an animal housing facility for 1 week before use and given access to food and water ad libitum. Animals were randomly assigned to the indicated experimental groups, and sensitized with two intraperitoneal (IP) injections (20 μg ovalbumin (OVA) emulsified in 2 mg aluminum hydroxide (an adjuvant) in 200 μl phosphate buffer saline (PBS), pH 7.4), on days 1 and 10.
After another week, the animals were challenged by exposure to ovalbumin (OVA) aerosol (1%, w/v, in PBS) for 30 minutes each day on days 17, 18 and 19, in order to elicit an inflammatory reaction in the lungs characterized by airway hyper-responsiveness (AHR), an influx of inflammatory cells (particularly eosinophils), and increased pulmonary levels of various cytokines and transforming growth factors, protein nitration and lipid peroxidation.
(§1) Bronchoalveolar lavage (BAL) fluid (also referred to herein as “BALf”) and bronchial submucosal inflammation are characteristic features of asthma. Mice were euthanized with an overdose of 50 mg/kg pentobarbital and ice-cold phosphate buffer saline (PBS) (0.6 ml) was instilled into the lungs. BAL fluid was obtained by three aspirations via tracheal cannulation, centrifuged, and the supernatant collected and stored at −70° C. Cell pellets were re-suspended in PBS and 100 μl aliquots placed onto slides and centrifuged (200 g, 4° C., 10 minutes) in a cytospin machine. Induction of oxidative stress was evaluated using a 2′,7′-dichlorofluorescein fluorescence assay, and total IgE, IgG2a, panel of cytokines, transforming growth factors, collagen, protein nitration and lipid peroxidation were measured using commercial kits according to the manufacturer's recommendations. A Sircol™ collagen assay kit was obtained from Biocolor Life Sciences Assays, a protein nitration assay kit was obtained from Abcam, and other assay kits were obtained from PeproTech Asia.
The efficacy of oral administration of 3-CP (1 weight percent in chow) during the sensitization period and/or challenge period was then compared to IP injection (˜300 mg/kg, 0.5 hour before the OVA challenge) or intranasal instillation (˜150 mg/kg, 0.5 hour before the OVA and 6 hours later) of 3-CP, as well as to dexamethasone treatment (1 mg/kg, 3 daily IP injections, 0.5 hour prior to the challenge with OVA aerosol).
In order to assess the effect of 3-CP on inflammatory signaling pathways, […] to procedures described hereinabove, upon oral, intranasal or IP administration of 3-CP.

3-nitrotyrosine (3-NT) = test: Protein nitration (3-nitrotyrosine) in lung homogenates, OVA asthma model; type: in vivo, mice; conditions: 3-CP via all tested modes of delivery (oral, IP, IN), FIG. 8
Description: as §1
In order to determine whether 3-CP reduces protein nitration, a form of cell damage induced by peroxynitrite (an anion generally believed to be formed in vivo by a reaction of superoxide radical and nitric oxide), lung homogenates were assayed for 3-nitrotyrosine (3-NT) levels.

[2] = tested on: ovalbumin-induced asthma model; test: Lung histopathology, H&E pathology scoring, OVA asthma model; type: in vivo, mice; conditions: FIG. 9
Description: Following aspiration of BAL as described hereinabove, a thoracotomy was performed, and the right main bronchus was tied. The left lung was fixed by means of intrabronchial infusion with 1 ml of 4% formaldehyde, and then immersed in fixative (10% (v/v) neutral buffered formalin) for 24 hours at 4° C. Transverse sections of the left lung were embedded in paraffin, and […] sections were stained with hematoxylin and eosin (H&E) by Hadassah Hospital Pathology Service (Jerusalem, Israel). In addition, periodic acid-Schiff (PAS) staining was performed on lung tissue, and the degree of mucin production was measured from PAS staining.
In order to evaluate the effect of 3-CP on lung pathology, animals in an ovalbumin-induced asthma model were treated with 3-CP, and killed by abdominal aortic transaction and exsanguination, according to procedures described hereinabove. Lung tissue was examined by hematoxylin and eosin (H&E) staining, the degree of mucin production was determined from periodic-acid-Schiff (PAS) staining.

[3] = tested on: mice with OVA-induced chronic asthma; test: Pulmonary collagen content, severe (chronic) asthma model; type: in vivo; conditions: FIG. 16
Description: Bronchoalveolar lavage (BAL) fluid (also referred to herein as “BALf”) and bronchial submucosal inflammation are characteristic features of asthma. Mice were euthanized with an overdose of 50 mg/kg pentobarbital and ice-cold phosphate buffer saline (PBS) (0.6 ml) was instilled into the lungs. BAL fluid was obtained by three aspirations via tracheal cannulation, centrifuged, and the supernatant collected and stored at −70° C. Cell pellets were re-suspended in PBS and 100 μl aliquots placed onto slides and centrifuged (200 g, 4° C., 10 minutes) in a cytospin machine. Induction of oxidative stress was evaluated using a 2′,7′-dichlorofluorescein fluorescence assay, and total IgE, IgG2a, panel of cytokines, transforming growth factors, collagen, protein nitration and lipid peroxidation were measured using commercial kits according to the manufacturer's recommendations. […]
3-CP was administered orally (1 weight percent in chow) during the entire experiment, and dexamethasone (Dex) was administered via IP injection (1 mg/kg) one hour before each challenge. Inflammatory cell counts and pulmonary collagen content were then evaluated according to procedures described hereinabove, in order to assess effects on inflammation and remodeling, respectively.

[4] = tested on: bleomycin-induced pulmonary fibrosis; test: Inflammatory cell counts in BAL fluid, bleomycin pulmonary fibrosis model; type: in vivo, mice; conditions: 3-CP 150 mg/kg daily intranasal, 14 days, FIG. 18
Description: (§2) Bronchoalveolar lavage (BAL) fluid (also referred to herein as “BALf”) and bronchial submucosal inflammation are characteristic features of asthma. Mice were euthanized with an overdose of 50 mg/kg pentobarbital and ice-cold phosphate buffer saline (PBS) (0.6 ml) was instilled into the lungs. BAL fluid was obtained by three aspirations via tracheal cannulation, centrifuged, and the supernatant collected and stored at −70° C. Cell pellets were re-suspended in PBS and 100 μl aliquots placed onto slides and centrifuged (200 g, 4° C., 10 minutes) in a cytospin machine. Induction of oxidative stress was evaluated using a 2′,7′-dichlorofluorescein fluorescence assay, and total IgE, IgG2a, panel of cytokines, transforming growth factors, collagen, protein nitration and lipid peroxidation were measured using commercial kits according to the manufacturer's recommendations. A Sircol™ collagen assay kit was obtained from Biocolor Life Sciences Assays, a protein nitration assay kit was obtained from Abcam, and other assay kits were obtained from PeproTech Asia. […]
(§3) The effect of 3-CP on bleomycin-induced inflammation was evaluated by determining lung resistance, total inflammatory cell count, and TGF-β1 levels, according to procedures described hereinabove.

TGF-β1 = TGF-β1 level in bleomycin pulmonary fibrosis model; type: in vivo, mice; conditions: 3-CP 150 mg/kg daily intranasal, 14 days, FIG. 19
Description: as §2, §3

[5] = previously established; cited from earlier work

CC1(C)CC(C(N)=O)C(C)(C)N1[O] (stereo not drawn) [3-CP, 3-Carbamoyl-2,2,5,5-tetramethyl-pyrrolidin-1-oxyl]
toxicity [1]: non-toxic | IL-5 level (IL-5; OVA IP-C: 3-CP intraperitoneal during challenge): 2.08 ng/mg | IL-5 level (IL-5; OVA oral-C: 3-CP oral during challenge): 2.40 ng/mg | IL-5 level (IL-5; OVA oral-S&C: 3-CP oral during sensitization and challenge): 1.96 ng/mg | IL-5 level (IL-5; OVA oral-S: 3-CP oral during sensitization): 3.16 ng/mg | effect on OVA-induced increase in the level of IL-5 (IL-5; lung tissue, FIG. 7B and Table 1): inhibited | modulating IL-5 level, oral compared with IP 3-CP (IL-5; oral administration vs IP injection): consistently more effective than IP injection of 3-CP | effect on pulmonary 3-NT levels (3-nitrotyrosine (3-NT)): markedly suppressed 3-NT levels as compared to the vehicle control as well as treatment with dexamethasone | effect on degree of lung pathology, H & E pathology scoring ([2]; 3-CP via all tested modes of delivery): reduced the degree of lung pathology | H & E lung pathology, 3-CP compared with dexamethasone [2]: more effective in this respect than treatment with dexamethasone | effect on increase in collagen content of the lung ([3]; 3-CP oral 1 weight percent in chow during entire experiment): completely reversed the increase in collagen content | reducing collagen content, 3-CP compared with dexamethasone ([3]; 3-CP oral, dexamethasone 1 mg/kg IP before each challenge): more effective than dexamethasone treatment at reducing collagen content | effect on bleomycin-induced increase in inflammatory cell counts in BAL fluid [4]: significantly reduced | effect on bleomycin-induced increase in TGF-β1 expression in lungs (TGF-β1): significantly reduced | maximally tolerated dose [5]: 300 to 500 mg/kg
